Results from patent US7541339B2, “Par-2-activating peptide derivative and pharmaceutical composition using the same” (The University of Edinburgh, priority 2002, dated 2009).
Like-named read-outs stand apart in the source and are kept apart here. Peptide text beside a SMILES is read from it. * marks the point of attachment. 2Furoyl = O=C(c1ccco1)*

Biological target: T1, human PAR-2 (Homo sapiens, UniProt P55085)
T1 construct: Human colorectal adenocarcinoma cell line, HCT-15, expressing endogenous PAR-2 at high levels; endogenous in cells; host or cells: HCT-15 (human colorectal adenocarcinoma)
T1 sequence (P55085 26-397): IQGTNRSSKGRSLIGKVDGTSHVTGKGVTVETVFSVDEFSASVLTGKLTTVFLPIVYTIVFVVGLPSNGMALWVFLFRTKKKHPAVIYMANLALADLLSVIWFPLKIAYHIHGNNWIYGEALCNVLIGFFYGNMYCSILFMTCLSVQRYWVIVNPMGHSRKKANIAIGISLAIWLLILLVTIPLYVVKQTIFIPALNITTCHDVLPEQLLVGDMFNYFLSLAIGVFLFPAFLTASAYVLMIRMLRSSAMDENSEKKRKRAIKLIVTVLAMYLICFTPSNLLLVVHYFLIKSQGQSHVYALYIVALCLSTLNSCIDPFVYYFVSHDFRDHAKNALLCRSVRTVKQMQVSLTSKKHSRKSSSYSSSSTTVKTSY
Experiment: PAR-2 activation potency: intracellular calcium mobilization assay (modified Hawthorne's method) in HCT-15 cells
Format: cell-based
Source text: PAR-2 activation with the peptide derivative represented by the general formula (I) in accordance with the invention can be tested by various known methods. For example, the Hollenberg's method (Hollenberg, M. D., et al., Can. J. Physiol. Pharmacol., 75, 832-841 (1997)), the Kawabata's method (Kawabata, A., et al., J. Pharmacol. Exp. Ther., 288, 358-370 (1999)) and the Hawthorne's method (Howthorne et al., A High-Throughput Microtiter Plate-Based Calcium Assay for the Study of Protease-Activated Receptor 2 Activation, Analytical Biochemistry 290, 378-379 (2001)) may be used for the test.
The inventors tested the PAR-2 activation potency according to the modified Hawthorne's method. In brief, that is the assay of the calcium mobilization in cells endogenously expressing human PAR-2. In this assay, cells were loaded with Fluorescent Ca2+ indicator dye in presence of Probenecid, an inhibitor of anion exchange transporter, and stimulated with agonists. The agonist-mediated intracellular calcium mobilization was measured using multiwell plate reader.
Human colorectal adenocarcinoma cell line, HCT-15, expressing endogenous PAR-2 at high levels were seeded in 96-well black wall clear bottom plates and subconfluent cells were loaded with Fluorescent Ca2+ indicator dye (Calcium Plus Assay Reagent, Molecular Devices) in serum free medium (RPMI) containing 2.5 mM Probenecid and incubated for 1 hr at 37 C. Then cells were stimulated with various concentrations of test compounds and fluorescent change was determined at wave length of 485 nm for excitation and 525 nm for emission (Cutoff 515 nm) using multiwell scanning fluorometer (FlexStation, Molecular Devices).
SLIGKV-OH (SEQ ID NO: 2) as a known PAR-2 activation peptide was used as a comparative compound, and the results are shown below in Table 1.

Row | EC50 (HCT-15 cells expressing endogenous PAR-2, fluorescent Ca2+ indicator dye, 2.5 mM Probenecid, read-out: Agonist Activity (EC50)) [nM] | Compound | EC50 [nM]
1 |  | CC[C@H](C)[C@H](NC(=O)[C@H](CC(C)C)NC(=O)c1ccco1)C(=O)NCC(=O)N[C@@H](CCCCN)C(=O)N[C@H](C(N)=O)C(C)C [Example 16] (2Furoyl-LIGKV-NH2; C-terminus assumed) | 320
2 | 22800 | H-SLIGKV-OH [SLIGKV-OH, reference compound] | 
3 |  | CC[C@H](C)[C@H](NC(=O)[C@H](CC(C)C)NC(=O)c1ccco1)C(=O)NCC(=O)N[C@@H](CCCCN)C(=O)N[C@H](C(=O)O)C(C)C [Example 6] (2Furoyl-LIGKV-OH; C-terminus assumed) | 1680
4 |  | CC[C@H](C)[C@H](NC(=O)[C@H](CC(C)C)NC(=O)c1ccco1)C(=O)NCC(=O)N[C@@H](CCCNC(=N)N)C(=O)N[C@@H](CC(C)C)C(=O)O [Example 18] | 1210
